Where two headings read alike, the source gives them in different places.
Tested on: subjects with metastatic or surgically unresectable urothelial cancer
[1] = all-causality, 6 mg continuous, n = 78

COc1cc(OC)cc(N(CCNC(C)C)c2ccc3ncc(-c4cnn(C)c4)nc3c2)c1 [erdafitinib, N-(3,5-dimethoxy-phenyl)-N′-(1-methylethyl)-N-[3-(1-methyl-1H-pyrazol-4-yl)quinoxalin-6-yl]ethane-1,2-diamine]
Serious treatment-emergent: Dyspnea (6 mg continuous, n = 78): 1 (1) no. (%)
Serious treatment-emergent: Eye disorders (6 mg continuous, n = 78): 3 (4) no. (%)
Serious treatment-emergent: Gastrointestinal disorders (6 mg continuous, n = 78): 8 (10) no. (%)
Serious treatment-emergent: Infections and infestations (6 mg continuous, n = 78): 13 (17) no. (%)
Serious treatment-emergent: Metabolism and nutrition disorders (6 mg continuous, n = 78): 3 (4) no. (%)
Serious treatment-emergent: Nervous system disorders (6 mg continuous, n = 78): 5 (6) no. (%)
Serious treatment-emergent: Renal and urinary disorders (6 mg continuous, n = 78): 5 (6) no. (%)
Serious treatment-emergent: Respiratory, thoracic, mediastinal disorders (6 mg continuous, n = 78): 3 (4) no. (%)
Serious treatment-emergent: Urinary tract infection (6 mg continuous, n = 78): 4 (5) no. (%)
Serious treatment-emergent: Urosepsis (6 mg continuous, n = 78): 3 (4) no. (%)
Total number of patients with serious treatment-emergent adverse events (6 mg continuous, n = 78): 39 (50) no. (%)
Serious treatment-emergent: Dyspnea (8 mg continuous, n = 99): 2 (2) no. (%)
Serious treatment-emergent: Eye disorders (8 mg continuous, n = 99): 9 (9) no. (%)
Serious treatment-emergent: Gastrointestinal disorders (8 mg continuous, n = 99): 8 (8) no. (%)
Serious treatment-emergent: Infections and infestations (8 mg continuous, n = 99): 9 (9) no. (%)
Serious treatment-emergent: Metabolism and nutrition disorders (8 mg continuous, n = 99): 2 (2) no. (%)
Serious treatment-emergent: Nervous system disorders (8 mg continuous, n = 99): 1 (1) no. (%)
Serious treatment-emergent: Renal and urinary disorders (8 mg continuous, n = 99): 10 (10) no. (%)
Serious treatment-emergent: Respiratory, thoracic, mediastinal disorders (8 mg continuous, n = 99): 3 (3) no. (%)
Serious treatment-emergent: Urinary tract infection (8 mg continuous, n = 99): 3 (3) no. (%)
Serious treatment-emergent: Urosepsis (8 mg continuous, n = 99): 2 (2) no. (%)
Total number of patients with serious treatment-emergent adverse events (8 mg continuous, n = 99): 39 (39) no. (%)
Treatment-related Alanine aminotransferase increased, any grade (8 mg continuous, n = 99): 12 (12) no. (%)
Treatment-related Alanine aminotransferase increased, grade 1 (8 mg continuous, n = 99): 9 (9) no. (%)
Treatment-related Alanine aminotransferase increased, grade 2 (8 mg continuous, n = 99): 2 (2) no. (%)
Treatment-related Alanine aminotransferase increased, grade 3 (8 mg continuous, n = 99): 1 (1) no. (%)
Treatment-related Alopecia, any grade (8 mg continuous, n = 99): 27 (27) no. (%)
Treatment-related Alopecia, grade 1 (8 mg continuous, n = 99): 21 (21) no. (%)
Treatment-related Alopecia, grade 2 (8 mg continuous, n = 99): 6 (6) no. (%)
Treatment-related Alopecia, grade 3 (8 mg continuous, n = 99): 0 no. (%)
Treatment-related Asthenia, any grade (8 mg continuous, n = 99): 13 (13) no. (%)
Treatment-related Asthenia, grade 1 (8 mg continuous, n = 99): 2 (2) no. (%)
Treatment-related Asthenia, grade 2 (8 mg continuous, n = 99): 9 (9) no. (%)
Treatment-related Asthenia, grade 3 (8 mg continuous, n = 99): 2 (2) no. (%)
Treatment-related Decreased appetite, any grade (8 mg continuous, n = 99): 25 (25) no. (%)
Treatment-related Decreased appetite, grade 1 (8 mg continuous, n = 99): 11 (11) no. (%)
Treatment-related Decreased appetite, grade 2 (8 mg continuous, n = 99): 14 (14) no. (%)
Treatment-related Decreased appetite, grade 3 (8 mg continuous, n = 99): 0 no. (%)
Treatment-related Diarrhea, any grade (8 mg continuous, n = 99): 37 (37) no. (%)
Treatment-related Diarrhea, grade 1 (8 mg continuous, n = 99): 21 (21) no. (%)
Treatment-related Diarrhea, grade 2 (8 mg continuous, n = 99): 12 (12) no. (%)
Treatment-related Diarrhea, grade 3 (8 mg continuous, n = 99): 4 (4) no. (%)
Treatment-related Dry eye, any grade (8 mg continuous, n = 99): 19 (19) no. (%)
Treatment-related Dry eye, grade 1 (8 mg continuous, n = 99): 14 (14) no. (%)
Treatment-related Dry eye, grade 2 (8 mg continuous, n = 99): 4 (4) no. (%)
Treatment-related Dry eye, grade 3 (8 mg continuous, n = 99): 1 (1) no. (%)
Treatment-related Dry mouth, any grade (8 mg continuous, n = 99): 43 (43) no. (%)
Treatment-related Dry mouth, grade 1 (8 mg continuous, n = 99): 32 (32) no. (%)
Treatment-related Dry mouth, grade 2 (8 mg continuous, n = 99): 11 (11) no. (%)
Treatment-related Dry mouth, grade 3 (8 mg continuous, n = 99): 0 no. (%)
Treatment-related Dry skin, any grade (8 mg continuous, n = 99): 32 (32) no. (%)
Treatment-related Dry skin, grade 1 (8 mg continuous, n = 99): 24 (24) no. (%)
Treatment-related Dry skin, grade 2 (8 mg continuous, n = 99): 8 (8) no. (%)
Treatment-related Dry skin, grade 3 (8 mg continuous, n = 99): 0 no. (%)
Treatment-related Dysgeusia, any grade (8 mg continuous, n = 99): 35 (35) no. (%)
Treatment-related Dysgeusia, grade 1 (8 mg continuous, n = 99): 22 (22) no. (%)
Treatment-related Dysgeusia, grade 2 (8 mg continuous, n = 99): 12 (12) no. (%)
Treatment-related Dysgeusia, grade 3 (8 mg continuous, n = 99): 1 (1) no. (%)
Treatment-related Fatigue, any grade (8 mg continuous, n = 99): 21 (21) no. (%)
Treatment-related Fatigue, grade 1 (8 mg continuous, n = 99): 8 (8) no. (%)
Treatment-related Fatigue, grade 2 (8 mg continuous, n = 99): 11 (11) no. (%)
Treatment-related Fatigue, grade 3 (8 mg continuous, n = 99): 2 (2) no. (%)
Treatment-related Hand-foot syndrome, any grade (8 mg continuous, n = 99): 22 (22) no. (%)
Treatment-related Hand-foot syndrome, grade 1 (8 mg continuous, n = 99): 5 (5) no. (%)
Treatment-related Hand-foot syndrome, grade 2 (8 mg continuous, n = 99): 12 (12) no. (%)
Treatment-related Hand-foot syndrome, grade 3 (8 mg continuous, n = 99): 5 (5) no. (%)
Treatment-related Hyperphosphatemia, any grade (8 mg continuous, n = 99): 72 (73) no. (%)
Treatment-related Hyperphosphatemia, grade 1 (8 mg continuous, n = 99): 49 (50) no. (%)
Treatment-related Hyperphosphatemia, grade 2 (8 mg continuous, n = 99): 21 (21) no. (%)
Treatment-related Hyperphosphatemia, grade 3 (8 mg continuous, n = 99): 2 (2) no. (%)
Treatment-related Lacrimation increased, any grade (8 mg continuous, n = 99): 11 (11) no. (%)
Treatment-related Lacrimation increased, grade 1 (8 mg continuous, n = 99): 8 (8) no. (%)
Treatment-related Lacrimation increased, grade 2 (8 mg continuous, n = 99): 3 (3) no. (%)
Treatment-related Lacrimation increased, grade 3 (8 mg continuous, n = 99): 0 no. (%)
Treatment-related Nail dystrophy, any grade (8 mg continuous, n = 99): 16 (16) no. (%)
Treatment-related Nail dystrophy, grade 1 (8 mg continuous, n = 99): 5 (5) no. (%)
Treatment-related Nail dystrophy, grade 2 (8 mg continuous, n = 99): 5 (5) no. (%)
Treatment-related Nail dystrophy, grade 3 (8 mg continuous, n = 99): 6 (6) no. (%)
Treatment-related Onycholysis, any grade (8 mg continuous, n = 99): 16 (16) no. (%)
Treatment-related Onycholysis, grade 1 (8 mg continuous, n = 99): 4 (4) no. (%)
Treatment-related Onycholysis, grade 2 (8 mg continuous, n = 99): 10 (10) no. (%)
Treatment-related Onycholysis, grade 3 (8 mg continuous, n = 99): 2 (2) no. (%)
Treatment-related Paronychia, any grade (8 mg continuous, n = 99): 14 (14) no. (%)
Treatment-related Paronychia, grade 1 (8 mg continuous, n = 99): 1 (1) no. (%)
Treatment-related Paronychia, grade 2 (8 mg continuous, n = 99): 10 (10) no. (%)
Treatment-related Paronychia, grade 3 (8 mg continuous, n = 99): 3 (3) no. (%)
Treatment-related Stomatitis, any grade (8 mg continuous, n = 99): 54 (55) no. (%)
Treatment-related Stomatitis, grade 1 (8 mg continuous, n = 99): 19 (19) no. (%)
Treatment-related Stomatitis, grade 2 (8 mg continuous, n = 99): 26 (26) no. (%)
Treatment-related Stomatitis, grade 3 (8 mg continuous, n = 99): 9 (9) no. (%)
Treatment-related Vision blurred, any grade (8 mg continuous, n = 99): 16 (16) no. (%)
Treatment-related Vision blurred, grade 1 (8 mg continuous, n = 99): 10 (10) no. (%)
Treatment-related Vision blurred, grade 2 (8 mg continuous, n = 99): 6 (6) no. (%)
Treatment-related Vision blurred, grade 3 (8 mg continuous, n = 99): 0 no. (%)
Treatment-related Weight decreased, any grade (8 mg continuous, n = 99): 10 (10) no. (%)
Treatment-related Weight decreased, grade 1 (8 mg continuous, n = 99): 5 (5) no. (%)
Treatment-related Weight decreased, grade 2 (8 mg continuous, n = 99): 5 (5) no. (%)
Treatment-related Weight decreased, grade 3 (8 mg continuous, n = 99): 0 no. (%)
some type of eye disorder, regardless of relation to treatment (8 mg per day continuous): 63%
treatment-related CSR grade ≥3 events (8 mg per day continuous): 3%
treatment-related central serous retinopathy (CSR) (8 mg per day continuous): 21%
treatment-related dry skin (8 mg per day continuous): 32%
treatment-related effects on the nails (8 mg per day continuous): 52%
treatment-related effects on the skin (8 mg per day continuous): 49%
treatment-related hand-foot syndrome (8 mg per day continuous): 22%
treatment-related hyperphosphatemia (8 mg per day continuous): 73%
treatment-related nail dystrophy (8 mg per day continuous): 16%
treatment-related onycholysis (8 mg per day continuous): 16%
patients with grade ≥3 treatment-emergent adverse events (8 mg per day continuous group uptitrated to 9 mg per day): 68%
grade 1 or 2 events among patients with eye disorders (8 mg per day continuous, patients with eye disorders (n=62)): 84%
Serious treatment-emergent: Dyspnea (10 mg intermittent, n = 33): 2 (6) no. (%)
Serious treatment-emergent: Eye disorders (10 mg intermittent, n = 33): 1 (3) no. (%)
Serious treatment-emergent: Gastrointestinal disorders (10 mg intermittent, n = 33): 2 (6) no. (%)
Serious treatment-emergent: Infections and infestations (10 mg intermittent, n = 33): 2 (6) no. (%)
Serious treatment-emergent: Metabolism and nutrition disorders (10 mg intermittent, n = 33): 1 (3) no. (%)
Serious treatment-emergent: Nervous system disorders (10 mg intermittent, n = 33): 0 no. (%)
Serious treatment-emergent: Renal and urinary disorders (10 mg intermittent, n = 33): 1 (3) no. (%)
Serious treatment-emergent: Respiratory, thoracic, mediastinal disorders (10 mg intermittent, n = 33): 4 (12) no. (%)
Serious treatment-emergent: Urinary tract infection (10 mg intermittent, n = 33): 0 no. (%)
Serious treatment-emergent: Urosepsis (10 mg intermittent, n = 33): 0 no. (%)
Total number of patients with serious treatment-emergent adverse events (10 mg intermittent, n = 33): 14 (42) no. (%)
Hyperphosphatemia reported (Regimen 3): 77%
hyperphosphatemia leading to dose reduction (Regimen 3): 9%
hyperphosphatemia managed by dose interruption (Regimen 3): 23%
patients discontinued due to treatment-emergent adverse events (Regimen 3): 13%
patients reporting treatment-emergent adverse events (Regimen 3): All patients
patients who required dose reduction (Regimen 3): 56%
patients with serious treatment-emergent adverse events (Regimen 3): 39%
stomatitis leading to dose reduction (Regimen 3): 16%
treatment-emergent adverse events grade 3 or 4 (Regimen 3): 67%
patients who required ≥1 dose reduction (Regimen 3, among 41 patients uptitrated to 9 mg per day): 59%
central serious retinopathy events resolved (all unresolved events grade 1 or 2): Seventy-six percent
Abdominal pain, any grade [1]: 14 no.
Abdominal pain, grade 1 [1]: 7 no.
Abdominal pain, grade 2 [1]: 5 no.
Abdominal pain, grade ≥ 3 [1]: 2 no.
Alanine aminotransferase increased, any grade [1]: 9 no.
Alanine aminotransferase increased, grade 1 [1]: 7 no.
Alanine aminotransferase increased, grade 2 [1]: 2 no.
Alanine aminotransferase increased, grade ≥ 3 [1]: 0 no.
Alopecia, any grade [1]: 10 no.
Alopecia, grade 1 [1]: 9 no.
Alopecia, grade 2 [1]: 1 no.
Alopecia, grade ≥ 3 [1]: 0 no.
Anemia, any grade [1]: 13 no.
Anemia, grade 1 [1]: 0 no.
Anemia, grade 2 [1]: 8 no.
Anemia, grade ≥ 3 [1]: 5 no.
Arthralgia, any grade [1]: 8 no.
Arthralgia, grade 1 [1]: 5 no.
Arthralgia, grade 2 [1]: 2 no.
Arthralgia, grade ≥ 3 [1]: 1 no.
Aspartate aminotransferase increased, any grade [1]: 9 no.
Aspartate aminotransferase increased, grade 1 [1]: 7 no.
Aspartate aminotransferase increased, grade 2 [1]: 2 no.
Aspartate aminotransferase increased, grade ≥ 3 [1]: 0 no.
Asthenia, any grade [1]: 18 no.
Asthenia, grade 1 [1]: 5 no.
Asthenia, grade 2 [1]: 4 no.
Asthenia, grade ≥ 3 [1]: 9 no.
Back pain, any grade [1]: 11 no.
Back pain, grade 1 [1]: 6 no.
Back pain, grade 2 [1]: 3 no.
Back pain, grade ≥ 3 [1]: 2 no.
Blood creatinine increased, any grade [1]: 6 no.
Blood creatinine increased, grade 1 [1]: 3 no.
Blood creatinine increased, grade 2 [1]: 3 no.
Blood creatinine increased, grade ≥ 3 [1]: 0 no.
Conjunctivitis, any grade [1]: 7 no.
Conjunctivitis, grade 1 [1]: 4 no.
Conjunctivitis, grade 2 [1]: 2 no.

— patent publication US12691112B2, “FGFR tyrosine kinase inhibitors for the treatment of urothelial carcinoma” (Janssen Pharmaceutica NV, priority 2019, dated 2026)
